Source: patent US20220281886A1, “NATRIURETIC PEPTIDE RECEPTOR A AGONISTS USEFUL FOR THE TREATMENT OF CARDIOMETABOLIC DISEASES, KIDNEY DISEASE AND DIABETES” (Merck Sharp & Dohme Corp., priority 2019, published 2022)
pEC50: −log10 of the molar value.

Target: T1, hNPRA (Homo sapiens, UniProt P16066)
T1 construct: expressed in transfected cells
T1 sequence (P16066 33-1061): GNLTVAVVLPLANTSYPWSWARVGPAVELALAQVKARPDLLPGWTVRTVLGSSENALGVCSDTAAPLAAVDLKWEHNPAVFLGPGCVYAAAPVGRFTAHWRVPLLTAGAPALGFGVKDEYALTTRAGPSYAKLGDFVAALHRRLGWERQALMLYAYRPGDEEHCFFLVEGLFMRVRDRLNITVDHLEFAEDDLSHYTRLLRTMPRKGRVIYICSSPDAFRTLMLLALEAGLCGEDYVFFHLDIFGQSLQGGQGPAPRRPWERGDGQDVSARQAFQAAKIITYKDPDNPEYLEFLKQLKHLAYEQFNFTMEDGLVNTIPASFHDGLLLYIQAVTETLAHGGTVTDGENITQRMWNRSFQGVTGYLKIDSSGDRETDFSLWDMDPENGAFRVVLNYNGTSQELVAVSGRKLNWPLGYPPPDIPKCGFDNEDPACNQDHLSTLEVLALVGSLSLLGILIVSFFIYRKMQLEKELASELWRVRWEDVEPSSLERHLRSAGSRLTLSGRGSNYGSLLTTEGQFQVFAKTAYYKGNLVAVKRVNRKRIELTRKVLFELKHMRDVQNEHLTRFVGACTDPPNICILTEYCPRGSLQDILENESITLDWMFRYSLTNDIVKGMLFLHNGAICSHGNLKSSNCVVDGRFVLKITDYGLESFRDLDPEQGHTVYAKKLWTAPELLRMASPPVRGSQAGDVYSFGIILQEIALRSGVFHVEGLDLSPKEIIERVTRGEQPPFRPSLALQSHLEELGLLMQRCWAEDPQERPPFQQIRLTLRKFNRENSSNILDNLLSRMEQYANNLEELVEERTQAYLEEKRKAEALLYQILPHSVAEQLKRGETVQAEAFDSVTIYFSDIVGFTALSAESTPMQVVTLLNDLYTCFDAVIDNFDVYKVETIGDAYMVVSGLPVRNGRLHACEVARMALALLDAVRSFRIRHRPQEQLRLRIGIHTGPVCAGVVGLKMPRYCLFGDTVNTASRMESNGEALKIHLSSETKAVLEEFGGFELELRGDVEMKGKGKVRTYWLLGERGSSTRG
Assay: NPRA Functional Cell Assay (cGMP HTRF)
Assay type: cell-based
Conditions: Human NPRA HEK JumpIn stable cells; cGMP by HTRF after 1 hour at 37° C.; 10-point dose response
Source text: Assay Buffer components HEPES and Opti-MEM® I Reduced-Serum with Glutamine (no phenol red) were from Gibco/Invitrogen (Thermo Fisher Scientific, Waltham, Mass. USA). 3-Isobutyl-1-methylxanthine (IBMX) and 4-(3-Butoxy-4-methoxybenzyl)imidazolidin-2-one (RO20) were obtained from Sigma-Aldrich (St. Louis, Mo., USA). DPBS (Dulbecco's phosphate-buffered saline) without Ca2+ and Mg2+ was purchased from GE Healthcare Bio-Sciences (Pittsburgh, Pa., USA). 384 well white Optiplates were from Perkin Elmer (Atlantic Highlands, N.J., USA). Human ANP (Atrial Natriuretic Peptide) (1-28) was purchased from Sigma-Aldrich (Catalog #A1663) and rat ANP (1-28) from Bachem (Torrance, Calif., USA) (Catalog #H2100). Human-BNP (Human-Brain Natriuretic Peptide) (1-32 AA) was purchased from American Peptide Company (Sunnyvale, Calif., USA) (product No. 14-1-90). cGMP kits were purchased from Cisbio. The assay ready frozen (ARF) Human/rat/dog NPRA HEK JumpIn Stable frozen cells (low passage number 5-11) were prepared in-house.
Test compounds were titrated in DMSO in a 10-point dose response in a separate step followed by a 100-fold dilution into the reaction. Positive response for each assay was determined using 10 nM rat-ANP peptide (rat cells) or 50 nM h-ANP peptide (human and dog cells).
Cells were thawed, washed with DPBS and resuspended in assay buffer (Opti-MEM+Glutamine, phenol red free media, 10 mM HEPES, 100 uM IBMX and 100 uM RO20) that was warmed to 37° C. Cells were then transferred to microplates via a Microplate Combi dispenser at a density of 1500, 400 and 1200 cells/well for human, rat and dog cells respectively, followed by acoustic transfer (Echo) of compound.
(§1) Compounds and cells were incubated at 37° C. with 5% CO2 for 1 hour, after which the cells were lysed and cGMP was captured using a CisBio cGMP HTRF assay kit. The TRF signal was measured with an Envision plate reader (emission set to 615 and 665 nm) after 1 hour incubation at ambient temperature. The TRF signal was converted to [cGMP] through the use of a cGMP calibration curve on each microplate. EC50's were generated from the resulting dose response curves by use of a 4 parameter logistic algorithm.
Assay Buffer components HEPES and Opti-MEM® I Reduced-Serum with Glutamine (no phenol red) were from Gibco/Invitrogen. 3-Isobutyl-1-methylxanthine (IBMX) and 4-(3-Butoxy-4-methoxybenzyl)imidazolidin-2-one (RO20) were obtained from Sigma. DPBS (Dulbecco's phosphate-buffered saline) without Ca2+ and Mg2+ was purchased from GE Healthcare Bio-Sciences (Pittsburgh, Pa., USA). 384 well white Optiplates were from Perkin Elmer (Atlantic Highlands, N.J., USA). Human ANP (1-28) was purchased from Sigma (A1663) and rat ANP (1-28) from Bachem (H2100). Human-BNP (1-32 AA) was purchased from American Peptide Company (Sunnyvale, Calif., USA) (product No. 14-1-90). cGMP kits were purchased from Cisbio (Bedford, Mass., USA). The assay ready frozen (ARF) Human/rat/dog NPRA HEK JumpIn Stable frozen cells (low passage number 5-11) were prepared in-house.
as §1, with “Envision®” for “Envision”, “(Perkin Elmer)(emission” for “(emission”
hNPRA EC50 (nM) are were determined for the compounds of Example 1 through 273 and are reported in the Experimental section of this application.

A pEC50 of 5.55 was found for `CC(C)[C@]1(F)CCc2nc3c(F)cc(C(=O)N[C@H](CCN4CCC(O)CC4)c4ccc(N5CC6CCC5CO6)nc4)cc3cc2C1` (stereo partly drawn) [Example 34, (7S)-N-((1R)-1-(6-(2-oxa-5-azabicyclo[2.2.2]octan-5-yl)pyridin-3-yl)-3-(4-hydroxypiperidin-1-yl)propyl)-4,7-difluoro-7-isopropyl-5,6,7,8-tetrahydroacridine-2-carboxamide] in this work.

A pEC50 of 6.69 was found for `COCC1CCN(CC[C@@H](NC(=O)c2cc(F)c3nc4c(cc3c2)C[C@](F)(C(C)C)CC4)c2ccc(-c3ccnnc3)nc2)CC1` (racemic) [Example 46, rac-(7S)-4,7-difluoro-7-isopropyl-N-[rac-(1R)-3-[4-(methoxymethyl)piperidin-1-ium-1-yl]-1-(6-pyridazin-4-yl-3-pyridyl)propyl]-6,8-dihydro-5H-acridine-2-carboxamide;2,2,2-trifluoroacetate] in this work.

A pEC50 of 6.12 was found for `CC(C)(C)[C@H]1CCc2nc3ccc(C(=O)N[C@H](CCN4CCC(O)CC4)c4ccc(N5CCOC5=O)cc4)cc3cc2C1` [Example 3, (7S)-7-tert-butyl-N-{(1R)-3-(4-hydroxypiperidin-1-yl)-1-[4-(2-oxo-1,3-oxazolidin-3-yl)phenyl]propyl}-5,6,7,8-tetrahydroacridine-2-carboxamide] in this work.

A pEC50 of 6.61 was found for `CC(C)[C@]1(F)CCc2nc3c(F)cc(C(=O)N[C@H](CCN4CCC(O)CC4)c4ccc(NS(=O)(=O)N(C)C)nc4)cc3cc2C1` [Example 26, (S)-N-((R)-1-(6-((N,N-dimethylsulfamoyl)amino)pyridin-3-yl)-3-(4-hydroxypiperidin-1-yl)propyl)-4,7-difluoro-7-isopropyl-5,6,7,8-tetrahydroacridine-2-carboxamide] in this work.

A pEC50 of 6.78 was found for `CC(C)[C@]1(F)CCc2nc3c(F)cc(C(=O)N[C@H](CCN4CCC(C(=O)O)CC4)c4ccc(-c5cnc(O)c(F)c5)cc4)cc3cc2C1` [Example 25, 1-((R)-3-((S)-4,7-difluoro-7-isopropyl-5,6,7,8-tetrahydroacridine-2-carboxamido)-3-(4-(5-fluoro-6-hydroxypyridin-3-yl)phenyl)propyl)piperidine-4-carboxylic acid] in this work.

A pEC50 of 6.72 was found for `CC(C)[C@]1(F)CCc2nc3c(F)cc(C(=O)N[C@H](CCN4CCC(C(C)(C)O)CC4)c4ccc(-c5ccnnc5)nc4)cc3cc2C1` (racemic) [Example 47, rac-(7S)-4,7-difluoro-7-isopropyl-N-[rac-(1R)-3-[4-(1-hydroxy-1-methyl-ethyl)piperidin-1-ium-1-yl]-1-(6-pyridazin-4-yl-3-pyridyl)propyl]-6,8-dihydro-5H-acridine-2-carboxamide;2,2,2-trifluoroacetate] in this work.

A pEC50 of 6.69 was found for `CC(C)[C@]1(F)CCc2nc3c(F)cc(C(=O)N[C@H](CCN4CCC(C)(O)CC4)c4ccc(-c5ccnnc5)nc4)cc3cc2C1` [Example 12, (7S)-4,7-difluoro-N-[(1R)-3-(4-hydroxy-4-methylpiperidin-1-yl)-1-(6-pyridazin-4-ylpyridin-3-yl)propyl]-7-(1-methylethyl)-5,6,7,8-tetrahydroacridine-2-carboxamide] in this work.

A pEC50 of 6.36 was found for `CC(C)[C@]1(F)CCc2nc3c(F)cc(C(=O)N[C@H](CCN4CCCCC4CN(C)C)c4ccc(-c5ccnnc5)nc4)cc3cc2C1` (mixture of isomers) [Example 59, rac-(7S)-4,7-difluoro-7-isopropyl-N-[rac-(1R)-3-[2-[(dimethylamino)methyl]-1-piperidyl]-1-(6-pyridazin-4-yl-3-pyridyl)propyl]-6,8-dihydro-5H-acridine-2-carboxamide] in this work.

A pEC50 of 7.01 was found for `CC(C)[C@]1(F)CCc2nc3c(F)cc(C(=O)N[C@H](CCN4CCC5(CC[C@@H](O)C5)CC4)c4ccc(-c5ccnnc5)nc4)cc3cc2C1` (racemic) [Example 49, rac-(7S)-4,7-difluoro-7-isopropyl-N-[rac-(1R)-1-(6-pyridazin-4-yl-3-pyridyl)-3-[rac-(3R)-3-hydroxy-8-azaspiro[4.5]decan-8-yl]propyl]-6,8-dihydro-5H-acridine-2-carboxamide] in this work.

A pEC50 of 6.74 was found for `CC(C)[C@]1(F)CCc2nc3c(F)cc(C(=O)N[C@H](CCN4CCC(CN5CCOCC5)CC4)c4ccc(-c5ccnnc5)nc4)cc3cc2C1` (racemic) [Example 60, rac-(7S)-4,7-difluoro-7-isopropyl-N-[rac-(1R)-3-[4-(morpholinomethyl)-1-piperidyl]-1-(6-pyridazin-4-yl-3-pyridyl)propyl]-6,8-dihydro-5H-acridine-2-carboxamide] in this work.

A pEC50 of 6.63 was found for `COC(=O)C1CCN(CC[C@@H](NC(=O)c2cc(F)c3nc4c(cc3c2)C[C@](F)(C(C)C)CC4)c2ccc(-c3cnc(O)c(F)c3)cc2)CC1` [Example 24, methyl 1-((R)-3-((S)-4,7-difluoro-7-isopropyl-5,6,7,8-tetrahydroacridine-2-carboxamido)-3-(4-(5-fluoro-6-hydroxypyridin-3-yl)phenyl)propyl)piperidine-4-carboxylate] in this work.

A pEC50 of 5.59 was found for `Cc1cc(C(=O)N[C@H](CCN2CCC(O)CC2)c2ccc(N3CCOC3=O)cc2)cc2cc3c(nc12)CCC(C(C)(C)C)C3` (stereo partly drawn) [Example 9, 7-(tert-butyl)-N-((R)-3-(4-hydroxypiperidin-1-yl)-1-(4-(2-oxooxazolidin-3-yl)phenyl)propyl)-4-methyl-5,6,7,8-tetrahydroacridine-2-carboxamide+] in this work.

A pEC50 of 6.46 was found for `CC(C)[C@]1(F)CCc2nc3c(F)cc(C(=O)N[C@H](CCN4CCC5(CCCO5)CC4)c4ccc(-c5ccnnc5)nc4)cc3cc2C1` (racemic) [Example 55, rac-(7S)-4,7-difluoro-7-isopropyl-N-[rac-(1R)-3-(1-oxa-8-azaspiro[4.5]decan-8-yl)-1-(6-pyridazin-4-yl-3-pyridyl)propyl]-6,8-dihydro-5H-acridine-2-carboxamide] in this work.

A pEC50 of 7.01 was found for `CC(C)[C@]1(F)CCc2nc3c(F)cc(C(=O)N[C@H](CCN4CCCCC4CCO)c4ccc(-c5ccnnc5)nc4)cc3cc2C1` (mixture of isomers) [Example 53, rac-(7S)-4,7-difluoro-7-isopropyl-N-[rac-(1R)-3-[2-(2-hydroxyethyl)-1-piperidyl]-1-(6-pyridazin-4-yl-3-pyridyl)propyl]-6,8-dihydro-5H-acridine-2-carboxamide] in this work.
